Values after ≈ are worked out from the molar mass of the structure shown.
What was measured:
Type in all cases: functional
Bacteroides fragilis = test: Antibacterial activity against Bacteroides fragilis ATCC 23745 by NCCLS method
Bacillus subtilis = test: Antibacterial activity against Bacillus subtilis ATCC 23857 by NCCLS method
Streptococcus pneumoniae = test: Antibacterial activity against Streptococcus pneumoniae ATCC 6301 by NCCLS method
[1] = system: Staphylococcus epidermidis; test: Antibacterial activity against Staphylococcus epidermidis ATCC 12228 by NCCLS method
Bacillus cereus = test: Antibacterial activity against Bacillus cereus ATCC 11778 by NCCLS method
Staphylococcus aureus [2] = test: Antibacterial activity against Staphylococcus aureus ATCC 29213 by NCCLS method
Clostridium perfringens = test: Antibacterial activity against Clostridium perfringens ATCC 10388 by NCCLS method
Enterococcus faecium = test: Antibacterial activity against vancomycin-resistant Enterococcus faecium ATCC 700221 by NCCLS method
Enterococcus faecalis = test: Antibacterial activity against vancomycin-resistant Enterococcus faecalis ATCC 51575 by NCCLS method
Staphylococcus aureus [3] = test: Antibacterial activity against methicillin-resistant Staphylococcus aureus ATCC 33591 by NCCLS method
[4] = system: Staphylococcus epidermidis; test: Antibacterial activity against methicillin-resistant Staphylococcus epidermidis ATCC 51625 by NCCLS method
Staphylococcus aureus [5] = test: Antibacterial activity against multidrug-resistant Staphylococcus aureus BAA-39 by NCCLS method

CCCCNC(=N)c1ccc2[nH]c(-c3ccc(CCc4ccc(-c5nc6cc(C(=N)NCCCC)ccc6[nH]5)cc4)cc3)nc2c1
MIC (Bacteroides fragilis): 32 µg/mL (≈ 52.4 µM)
MIC (Bacillus subtilis): 1 µg/mL (≈ 1.64 µM)
MIC (Streptococcus pneumoniae): 1 µg/mL (≈ 1.64 µM)
MIC [1]: 0.25 µg/mL (≈ 0.409 µM)
MIC (Bacillus cereus): 4 µg/mL (≈ 6.55 µM)
MIC (Staphylococcus aureus [2]): 4 µg/mL (≈ 6.55 µM)
MIC (Clostridium perfringens): 0.5 µg/mL (≈ 0.819 µM)
MIC (Enterococcus faecium): 2 µg/mL (≈ 3.27 µM)
MIC (Enterococcus faecalis): 32 µg/mL (≈ 52.4 µM)
MIC (Staphylococcus aureus [3]): 2 µg/mL (≈ 3.27 µM)
MIC [4]: 0.5 µg/mL (≈ 0.819 µM)
MIC (Staphylococcus aureus [5]): 4 µg/mL (≈ 6.55 µM)

CCC(C)NC(=N)c1ccc2[nH]c(-c3ccc(CCc4ccc(-c5nc6cc(C(=N)NC(C)CC)ccc6[nH]5)cc4)cc3)nc2c1 (stereo not given)
MIC (Bacteroides fragilis): 2 µg/mL (≈ 3.27 µM)
MIC (Bacillus subtilis): 0.25 µg/mL (≈ 0.409 µM)
MIC (Streptococcus pneumoniae): 0.12 µg/mL (≈ 0.196 µM)
MIC [1]: < 0.06 µg/mL
MIC (Bacillus cereus): 0.5 µg/mL (≈ 0.819 µM)
MIC (Staphylococcus aureus [2]): 1 µg/mL (≈ 1.64 µM)
MIC (Clostridium perfringens): 0.5 µg/mL (≈ 0.819 µM)
MIC (Enterococcus faecium): 0.5 µg/mL (≈ 0.819 µM)
MIC (Enterococcus faecalis): 2 µg/mL (≈ 3.27 µM)
MIC (Staphylococcus aureus [3]): 0.25 µg/mL (≈ 0.409 µM)
MIC [4]: 0.12 µg/mL (≈ 0.196 µM)
MIC (Staphylococcus aureus [5]): 0.5 µg/mL (≈ 0.819 µM)

CC(C)NC(=N)c1ccc2[nH]c(-c3ccc(CCc4ccc(-c5nc6cc(C(=N)NC(C)C)ccc6[nH]5)nc4)cc3)nc2c1
MIC (Bacteroides fragilis): 32 µg/mL (≈ 54.8 µM)
MIC (Bacillus subtilis): 1 µg/mL (≈ 1.71 µM)
MIC (Streptococcus pneumoniae): 0.12 µg/mL (≈ 0.206 µM)
MIC [1]: 0.25 µg/mL (≈ 0.428 µM)
MIC (Bacillus cereus): 0.5 µg/mL (≈ 0.857 µM)
MIC (Staphylococcus aureus [2]): 4 µg/mL (≈ 6.85 µM)
MIC (Clostridium perfringens): 8 µg/mL (≈ 13.7 µM)
MIC (Enterococcus faecium): 1 µg/mL (≈ 1.71 µM)
MIC (Enterococcus faecalis): 2 µg/mL (≈ 3.43 µM)
MIC (Staphylococcus aureus [3]): 4 µg/mL (≈ 6.85 µM)
MIC [4]: 1 µg/mL (≈ 1.71 µM)
MIC (Staphylococcus aureus [5]): 8 µg/mL (≈ 13.7 µM)

N=C(NC1CC1)c1ccc2[nH]c(-c3ccc(CCc4ccc(-c5nc6cc(C(=N)NC7CC7)ccc6[nH]5)cc4)cc3)nc2c1
MIC (Bacteroides fragilis): 32 µg/mL (≈ 55.3 µM)
MIC (Bacillus subtilis): 1 µg/mL (≈ 1.73 µM)
MIC (Streptococcus pneumoniae): < 0.06 µg/mL
MIC [1]: 0.12 µg/mL (≈ 0.207 µM)
MIC (Bacillus cereus): 0.25 µg/mL (≈ 0.432 µM)
MIC (Staphylococcus aureus [2]): 8 µg/mL (≈ 13.8 µM)
MIC (Clostridium perfringens): 1 µg/mL (≈ 1.73 µM)
MIC (Enterococcus faecium): 1 µg/mL (≈ 1.73 µM)
MIC (Enterococcus faecalis): 32 µg/mL (≈ 55.3 µM)
MIC (Staphylococcus aureus [3]): 8 µg/mL (≈ 13.8 µM)
MIC [4]: 0.25 µg/mL (≈ 0.432 µM)
MIC (Staphylococcus aureus [5]): 16 µg/mL (≈ 27.6 µM)

CC(C)NC(=N)c1ccc2[nH]c(-c3ccc(CCc4ccc(-c5nc6cc(C(=N)NC(C)C)ccc6[nH]5)cn4)cc3)nc2c1
MIC (Bacteroides fragilis): 16 µg/mL (≈ 27.4 µM)
MIC (Bacillus subtilis): 32 µg/mL (≈ 54.8 µM)
MIC (Streptococcus pneumoniae): 8 µg/mL (≈ 13.7 µM)
MIC [1]: 2 µg/mL (≈ 3.43 µM)
MIC (Bacillus cereus): 8 µg/mL (≈ 13.7 µM)
MIC (Staphylococcus aureus [2]): 16 µg/mL (≈ 27.4 µM)
MIC (Clostridium perfringens): 0.5 µg/mL (≈ 0.857 µM)
MIC (Enterococcus faecium): 16 µg/mL (≈ 27.4 µM)
MIC (Enterococcus faecalis): 4 µg/mL (≈ 6.85 µM)
MIC (Staphylococcus aureus [3]): 8 µg/mL (≈ 13.7 µM)
MIC [4]: 4 µg/mL (≈ 6.85 µM)
MIC (Staphylococcus aureus [5]): 8 µg/mL (≈ 13.7 µM)

CC(C)NC(=N)c1ccc2[nH]c(-c3ccc(CCc4ccc(-c5nc6cc(C(=N)NC(C)C)ccc6[nH]5)s4)cc3)nc2c1
MIC (Bacteroides fragilis): 4 µg/mL (≈ 6.79 µM)
MIC (Bacillus subtilis): 0.5 µg/mL (≈ 0.849 µM)
MIC [1]: 0.12 µg/mL (≈ 0.204 µM)
MIC (Bacillus cereus): 0.25 µg/mL (≈ 0.425 µM)
MIC (Staphylococcus aureus [2]): 1 µg/mL (≈ 1.7 µM)
MIC (Clostridium perfringens): 0.25 µg/mL (≈ 0.425 µM)
MIC (Enterococcus faecalis): 0.5 µg/mL (≈ 0.849 µM)
MIC (Staphylococcus aureus [3]): 0.5 µg/mL (≈ 0.849 µM)
MIC [4]: 0.12 µg/mL (≈ 0.204 µM)
MIC (Staphylococcus aureus [5]): 0.5 µg/mL (≈ 0.849 µM)

CC(C)NC(=N)c1ccc2[nH]c(-c3ccc(CCc4cc(-c5nc6cc(C(=N)NC(C)C)ccc6[nH]5)cs4)cc3)nc2c1
MIC (Bacteroides fragilis): 1 µg/mL (≈ 1.7 µM)
MIC (Bacillus subtilis): 0.5 µg/mL (≈ 0.849 µM)
MIC (Streptococcus pneumoniae): 0.12 µg/mL (≈ 0.204 µM)
MIC (Bacillus cereus): 0.25 µg/mL (≈ 0.425 µM)
MIC (Staphylococcus aureus [2]): 1 µg/mL (≈ 1.7 µM)
MIC (Clostridium perfringens): 0.25 µg/mL (≈ 0.425 µM)
MIC (Enterococcus faecium): 0.25 µg/mL (≈ 0.425 µM)
MIC (Enterococcus faecalis): 1 µg/mL (≈ 1.7 µM)
MIC (Staphylococcus aureus [3]): 0.25 µg/mL (≈ 0.425 µM)
MIC [4]: 0.25 µg/mL (≈ 0.425 µM)
MIC (Staphylococcus aureus [5]): 1 µg/mL (≈ 1.7 µM)

N=C(N)c1ccc2[nH]c(-c3ccc(CCc4ccc(-c5nc6cc(C(=N)N)ccc6[nH]5)cc4)cc3)nc2c1
MIC (Bacteroides fragilis): > 32 µg/mL
MIC (Bacillus subtilis): 32 µg/mL (≈ 64.2 µM)
MIC (Streptococcus pneumoniae): > 32 µg/mL
MIC [1]: 4 µg/mL (≈ 8.02 µM)
MIC (Bacillus cereus): > 32 µg/mL
MIC (Staphylococcus aureus [2]): > 32 µg/mL
MIC (Clostridium perfringens): > 32 µg/mL
MIC (Enterococcus faecium): 32 µg/mL (≈ 64.2 µM)
MIC (Enterococcus faecalis): > 32 µg/mL
MIC (Staphylococcus aureus [3]): > 32 µg/mL
MIC [4]: 32 µg/mL (≈ 64.2 µM)
MIC (Staphylococcus aureus [5]): > 32 µg/mL

CC(C)NC(=N)c1ccc2[nH]c(-c3ccc(CCc4ccc(-c5nc6ccccc6[nH]5)cc4)cc3)nc2c1
MIC (Bacteroides fragilis): > 32 µg/mL
MIC (Bacillus subtilis): > 32 µg/mL
MIC (Streptococcus pneumoniae): > 32 µg/mL
MIC [1]: 4 µg/mL (≈ 8.02 µM)
MIC (Bacillus cereus): 32 µg/mL (≈ 64.2 µM)
MIC (Staphylococcus aureus [2]): > 32 µg/mL
MIC (Clostridium perfringens): 1 µg/mL (≈ 2.01 µM)
MIC (Enterococcus faecium): 16 µg/mL (≈ 32.1 µM)
MIC (Enterococcus faecalis): > 32 µg/mL
MIC (Staphylococcus aureus [3]): > 32 µg/mL
MIC [4]: 8 µg/mL (≈ 16 µM)
MIC (Staphylococcus aureus [5]): > 32 µg/mL

— ChEMBL document CHEMBL1153280, “Synthesis and in vitro activity of dicationic bis-benzimidazoles as a new class of anti-MRSA and anti-VRE agents” (2009)
